The text below walks through data of PMC9401498 (Clinical Cancer Research, 2021).

One may read the half-life as how long it takes for the measured level to halve. What is called AUC is concentration integrated over time. Low values mean low exposure, high ones high exposure. A word on the AUC(0-t): it is exposure summed from dosing to a finite time, without extrapolation to infinity. The low end stands for low exposure, the high end for high exposure. As usually defined, the Cmax is the maximum level reached in the sampled fluid or tissue. For orientation: Tmax means the time at which the peak concentration occurs.

The test system of one series is glutamine. The experiment in a line: Plasma glutamine concentration. Type of series: in vivo, human. Conditions: cycle 1, day 15 relative to predose on cycle 1, day 1; P = 0.0073; n = 6.
The subject of series [1] is renal cell carcinoma (RCC). In words: Antitumor activity by RECIST v1.1, RCC cohorts. Type of series: in vivo, human.
Series [2] can be described thus: Plasma pharmacokinetics of telaglenastat. Type of series: in vivo, human.
The test system of a further series is tumor cell lines. Conditions: preclinical, several tumor cell lines; cited from earlier work.
The subject of series [3] is solid tumor xenograft mouse models. Conditions: preclinical, e.g., RCC, NSCLC, TNBC, hematologic malignancies; alone and in combination; cited from earlier work.
The mark [4] stands for this setting: All RCC (n = 28), number (percent) of efficacy evaluable patients.

As to `O=C(Cc1cccc(OC(F)(F)F)c1)Nc1ccc(CCCCc2nnc(NC(=O)Cc3ccccn3)s2)nn1` [telaglenastat, Telaglenastat], the “increase in plasma glutamine” value in the series with glutamine is recorded as “approximately 150%”. For the same molecule, the “Disease control rate (DCR)” value in series [1] (28 evaluable patients with RCC in both dose escalation and dose expansion, 14/28) was found to be 50%. In series [1] (setting [4]), the “Best overall response: Partial response” value was 1 (3.6), the “Best overall response: Progressive disease” value is recorded as 14 (50.0) and the “Best overall response: Stable disease” value is 13 (46.4). Moreover, in series [1] (clear cell RCC patient with PR (800 mg BID)), the “reduction in target lesions” value is given as 32%. The “patients with RCC remaining on study for more than 10 months” value in series [1] (in vivo) was “Four”. In series [1] (one clear cell patient with RCC), this molecule yielded a time on study of over 2.4 years. Besides, the overall response rate in series [1] (renal cell carcinoma) is on record as 5%. The Cmin in series [2] (RCC patient with PR (800 mg BID)) was 1,490 ng/mL. The half-life in series [2] (human, in vivo, 600 mg) is 3.73 h. Moreover, the AUC in series [2] (human, in vivo, 800 mg) was found to be 19900 ng·h/mL. In series [2] (human, in vivo, 800 mg, AUC0–8h, steady state C1D15, 800 mg BID-fed (n = 10), mean (CV%)), this molecule showed an AUC(0-t) of 9660 ng·h/mL. In addition, in series [2] (human, in vivo, 800 mg, C max, steady state C1D15, 800 mg BID-fed (n = 10), mean (CV%)), the Cmax stood at 1770 ng/mL. Besides, in series [2] (human, in vivo, 800 mg, C min, steady state C1D15, 800 mg BID-fed (n = 10), median (range)), the concentration at 15 day of cycle 1 was 443 ng/mL. In series [2] (human, in vivo, 800 mg, Cmax, RCC patient with PR (800 mg BID)), this molecule displayed a Cmax of 2960 ng/mL. Further, in series [2] (human, in vivo, 800 mg, t max, steady state C1D15, 800 mg BID-fed (n = 10), (range)), the Tmax worked out at 4 h. In addition, in series [2] (steady state C1D15, 1,000 mg BID-fed (n = 4), median (range)), the C min was 147 (73.2–221) ng/mL. The antiproliferative activity result in the series with tumor cell lines is “cytostatic and cytotoxic antiproliferative activity”. Further, the “effect on tumor growth” value in series [3] is given as “cytostatic-suppressive effects against tumor growth”.
